A short description of data set [1]: Antioxidant activity assessed as DPPH radical scavenging activity at 0.5 mM after 30 mins. Conditions: 0.5 h, 500 µM. It is filed as physicochemical. On the technique in general: DPPH is a stable violet radical that fades when it is reduced.
Data set [2] is described as follows: Antioxidant activity assessed as DPPH radical scavenging activity at 0.125 mM after 30 mins. It is filed as physicochemical. Conditions: 0.5 h, 125 µM.
Data set [3] is described as follows: Cytotoxicity against mouse Hepa-1c1c7 cells assessed as cell viability at 10 uM after 24 hrs by crystal violet staining-based assay. Particulars: read-out: Activity.
Data set [4] in a line: Antioxidant activity assessed as DPPH radical scavenging activity at 0.05 mM after 30 mins. It is filed as physicochemical. Conditions: 0.5 h, 50 µM.
Data set [5] in a line: Antioxidant activity assessed as DPPH radical scavenging activity at 2 mM after 30 mins. Conditions: 0.5 h, 2000 µM. The class given is physicochemical.
Data set [6] deals with NAD(P)H dehydrogenase [quinone] 1 (Mus musculus) (UniProt Q64669). The data set is described as follows: Induction of NQO1 activity in mouse Hepa-1c1c7 cells at 20 uM after 24 hrs by MTT assay relative to control. The class given is cell-based. On the technique in general: Formazan colour is commonly taken as a measure of viable cells.
NAD(P)H dehydrogenase [quinone] 1 (Mus musculus), sequence (Q64669 whole entry): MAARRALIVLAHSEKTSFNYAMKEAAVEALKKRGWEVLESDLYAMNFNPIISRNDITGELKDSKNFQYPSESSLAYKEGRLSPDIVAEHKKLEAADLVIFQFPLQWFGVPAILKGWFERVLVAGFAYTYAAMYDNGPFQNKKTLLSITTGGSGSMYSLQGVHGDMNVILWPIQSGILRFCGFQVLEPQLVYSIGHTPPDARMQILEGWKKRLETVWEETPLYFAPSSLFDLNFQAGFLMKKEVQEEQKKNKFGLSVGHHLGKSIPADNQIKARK
A short description of data set [7]: Cytotoxicity against mouse Hepa-1c1c7 cells assessed as cell viability at 20 uM after 24 hrs by crystal violet staining-based assay. Conditions: read-out: Activity.
For data set [8], the target named is NAD(P)H dehydrogenase [quinone] 1 (Mus musculus) (UniProt Q64669). The data set is described as follows: Induction of NQO1 activity in mouse Hepa-1c1c7 cells at 10 uM after 24 hrs by MTT assay relative to control. It is filed as cell-based.

These results are taken from ChEMBL document CHEMBL3745701, “Bioactive minor components of the total salvianolic acids injection prepared from Salvia miltiorrhiza Bge” (Bioorg Med Chem Lett, 2016).

`O=C(/C=C/c1ccc(O)c(O)c1/C(=C/c1ccc(O)c(O)c1)C(=O)O[C@@H](Cc1ccc(O)c(O)c1)C(=O)O)O[C@@H](Cc1ccc(O)c(O)c1)C(=O)O`: the “inhibition (INH)” value in data set [1] was found to be 14.8%; in data set [2], 8.1%; in data set [4] it was 4.4%; in data set [5], 53.6%. Also, the viability at 24 h, 10 µM in data set [3] came out at 94%. Further, the fold change (FC) in data set [6] was determined as 2.6; in data set [8] it was 1.4. Besides, the viability at 24 h, 20 µM in data set [7] was 88%.

Take `O=C1O[C@H]([C@@H](O)CO)C(O)=C1O` [ASCORBIC ACID]: the “inhibition (INH)” value in data set [1] amounted to 58.5%; in data set [2], 31.8%; in data set [4] it was 26%; in data set [5], 74.9%.

In the case of `O=c1cc(-c2ccc(Br)cc2)oc2ccccc12`, in data set [3], the viability at 24 h, 10 µM amounted to 109%. The compound also returned a fold change (FC) in data set [8] of 2.9.

For the compound `O=C(/C=C/c1ccc(O)c2c1[C@@H](C(=O)O[C@H](Cc1ccc(O)c(O)c1)C(=O)O)[C@H](c1ccc(O)c(O)c1)O2)O[C@H](Cc1ccc(O)c(O)c1)C(=O)O`, the “inhibition (INH)” value in data set [1] was 64.1%; in data set [2] it was 60.2%; in data set [4], 37.6%; in data set [5] it was 84.7%. The viability at 24 h, 10 µM in data set [3] came out at 85%. The figures for the fold change (FC) in data set [6] and in data set [8] were 1.4 and 1, respectively. For the same compound, the viability at 24 h, 20 µM in data set [7] was determined as 79%.

`O=C(/C=C/c1ccc(O)c2c1[C@@H](C(=O)O[C@@H](Cc1ccc(O)c(O)c1)C(=O)O)[C@H](c1ccc(O)c(O)c1)O2)O[C@@H](Cc1ccc(O)c(O)c1)C(=O)O`: the “inhibition (INH)” value in data set [1] is given as 77.1%; in data set [2] it was 64.9%; in data set [4], 42.1%; in data set [5] it was 84.3%. For the same compound, the viability at 24 h, 10 µM in data set [3] was 97%. The figures for the fold change (FC) in data set [6] and in data set [8] were 1.7 and 1.2, respectively. In addition, the viability at 24 h, 20 µM in data set [7] is 82%.
